In one assay the target is T1, M1 muscarinic receptor (Homo sapiens, UniProt P11229).
T1 construct: expressed in transfected cells; host or cells: CHO (M1-CHO)
T1 sequence (P11229 1-460): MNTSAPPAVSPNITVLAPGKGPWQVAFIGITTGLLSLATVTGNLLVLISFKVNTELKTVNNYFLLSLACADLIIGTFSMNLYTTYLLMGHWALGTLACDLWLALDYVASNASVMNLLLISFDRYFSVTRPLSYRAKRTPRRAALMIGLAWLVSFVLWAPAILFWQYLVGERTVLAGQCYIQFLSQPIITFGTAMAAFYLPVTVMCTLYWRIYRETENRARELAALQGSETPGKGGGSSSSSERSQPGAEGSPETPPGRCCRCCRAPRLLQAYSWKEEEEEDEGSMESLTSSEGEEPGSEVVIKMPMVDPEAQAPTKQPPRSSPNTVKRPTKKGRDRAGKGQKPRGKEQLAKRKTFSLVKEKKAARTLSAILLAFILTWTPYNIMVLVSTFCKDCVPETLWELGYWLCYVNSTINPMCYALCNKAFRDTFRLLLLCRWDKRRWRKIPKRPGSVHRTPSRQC
Put plainly: Functional mobilization of intracellular calcium (FLIPR), M1-CHO cells. Format: cell-based. The conditions noted are these: for Emax: 100% efficacy is the maximum response obtained with the Carbachol control; for M1 Activity: CHO cells expressing M1, calcium mobilization. A digest of the protocol: (§1)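 Recombinant CHO cells loaded with Fluo-3 AM or Calcium 3 dye; fluorescence recorded 60 s on FLIPR in pH 7.4 buffer with 1 mM probenecid, 0.5% DMSO. Agonist mode: compound alone; antagonist mode: 15 min preincubation (or co-application) then carbachol at EC80. Efficacy relative to maximal carbachol response.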
Background: Calcium assays in cells follow changes in intracellular calcium, usually with a dye or a luminescent sensor.

The target of the next assay is T2, M4 muscarinic receptor (Homo sapiens, UniProt P08173).
T2 construct: expressed in transfected cells; host or cells: CHO (M4-CHO)
T2 sequence (P08173 1-479): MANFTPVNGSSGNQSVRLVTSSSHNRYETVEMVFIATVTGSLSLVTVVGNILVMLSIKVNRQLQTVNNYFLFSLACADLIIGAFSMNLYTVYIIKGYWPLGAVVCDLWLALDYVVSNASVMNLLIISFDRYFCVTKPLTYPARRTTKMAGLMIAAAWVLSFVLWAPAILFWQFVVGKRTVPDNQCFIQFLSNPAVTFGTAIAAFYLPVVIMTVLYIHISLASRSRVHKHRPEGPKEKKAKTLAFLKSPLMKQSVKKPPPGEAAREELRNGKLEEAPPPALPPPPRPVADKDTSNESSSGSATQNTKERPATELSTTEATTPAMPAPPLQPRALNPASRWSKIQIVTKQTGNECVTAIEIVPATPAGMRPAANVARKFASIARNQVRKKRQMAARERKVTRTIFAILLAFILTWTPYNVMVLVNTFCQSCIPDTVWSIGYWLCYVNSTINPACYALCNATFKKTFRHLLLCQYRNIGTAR
Put plainly: Functional mobilization of intracellular calcium (FLIPR), M4-CHO cells. Format: cell-based. Particulars: for Emax: 100% efficacy is the maximum response obtained with the Carbachol control; for M4 Activity: CHO cells expressing M4, calcium mobilization. A digest of the protocol:
as §1

Molecules are shown by their SMILES. A value given as a limit tells only on which side of the number the result lay.

`CCC#CCOC(=O)N1CCC(N2CCC3(CCN(C(C)=O)c4ccccc43)CC2)CC1` [compound 14]: on M1 muscarinic receptor, the maximal response (Emax) (commonly the size of the effect at its maximum, as opposed to the concentration needed) was 25 to 100% and the “M1 Activity” value is reported as “+++ (activity was measured to be less than 2.0 μM)”. Further, at M4 muscarinic receptor, the maximal response (Emax) lay within 25 to 100% and the “M4 Activity” value is given as “+++ (activity was measured to be less than 2.0 μM)”.
For `CN(C)C(=O)N1CC2(CCN(C3CCCN(C(=O)O[C@@H]4CCOC4)CC3)CC2)c2ccccc21` (some centres unmarked) [compound 73], on M1 muscarinic receptor, the Emax was less than 25% and the “M1 Activity” value is recorded as “++ (activity was measured to be from 2.0 μM to 10.0 μM)”. At M4 muscarinic receptor, the Emax fell in the range of 25 to 100% and the “M4 Activity” value was “+++ (activity was measured to be less than 2.0 μM)”.
The corresponding values for `CCCOC(=O)N1C2CCC1CC(N1CCC3(CC1)CN(C(=O)N(C)C)c1ccccc13)C2` (centres unmarked) [compound 47] are 25 to 100%, “+++ (activity was measured to be less than 2.0 μM)”, 25 to 100% and “+++ (activity was measured to be less than 2.0 μM)”.
Consider `C#CCCOC(=O)N1CCC(N2CCC3(CC2)CN(C(=O)N(C)C)c2ccccc23)CC1` [compound 44], for which, on M1 muscarinic receptor, the Emax lay within 25 to 100% and the “M1 Activity” value is listed as “+++ (activity was measured to be less than 2.0 μM)”. On M4 muscarinic receptor, the Emax was in the range of 25 to 100% and the “M4 Activity” value was “+++ (activity was measured to be less than 2.0 μM)”.
On to `Cc1ncc(N2CCC(N3CCC4(CCN(C(=O)N(C)C)c5ccccc54)CC3)CC2)nc1C` [Compound No. 20, 1-(1-(5,6-dimethylpyrazin-2-yl)piperidin-4-yl)-N,N-dimethyl-2′,3′-dihydrospiro[piperidine-4,4′-quinoline]-1′-carboxamide], for which, at M1 muscarinic receptor, the Emax fell in the range of 25 to 100% and the “M1 Activity” value was “++ (activity was measured to be from 2.0 μM to 10.0 μM)”. For the same molecule, on M4 muscarinic receptor, the Emax lay in the range of 25 to 100% and the “M4 Activity” value is on record as “+++ (activity was measured to be less than 2.0 μM)”.
With `CN(C)C(=O)N1CCC2(CCN(C3CCN(c4nccs4)CC3)CC2)c2ccccc21` [compound 35], on M1 muscarinic receptor, the maximal effect (Emax) is less than 25% and the “M1 Activity” value is on record as “++ (activity was measured to be from 2.0 μM to 10.0 μM)”. At M4 muscarinic receptor, the maximal response (Emax) is less than 25% and the “M4 Activity” value was “++ (activity was measured to be from 2.0 μM to 10.0 μM)”.
Turning to `CCCOC(=O)N1CC[C@H](CN2CCC3(CC2)CN(C(=O)N(C)C)c2ccccc23)C1` [compound 61], on M1 muscarinic receptor, the maximum response (Emax) was less than 25% and the “M1 Activity” value was “++ (activity was measured to be from 2.0 μM to 10.0 μM)”. At M4 muscarinic receptor, the Emax lay within 25 to 100% and the “M4 Activity” value is listed as “+++ (activity was measured to be less than 2.0 μM)”.
Turning to `CCOC(=O)N1CCC(N2CCC3(CCN(C(C)=O)c4ccccc43)CC2)CC1` [Compound No. 11, ethyl 4-(1′-acetyl-2′,3′-dihydro-1′H-spiro[piperidine-4,4′-quinoline]-1-yl)piperidine-1-carboxylate], on M1 muscarinic receptor, the Emax was more than 100% and the “M1 Activity” value is “+++ (activity was measured to be less than 2.0 μM)”. Besides, on M4 muscarinic receptor, the Emax was more than 100% and the “M4 Activity” value is “+++ (activity was measured to be less than 2.0 μM)”.
As to `CN(C)C(=O)N1CC2(CCN(C[C@@H]3CCN(C(=O)OCC(F)F)C3)CC2)c2ccccc21` [compound 57], on M1 muscarinic receptor, the maximal effect (Emax) fell in the range of 25 to 100% and the “M1 Activity” value is reported as “+++ (activity was measured to be less than 2.0 μM)”. Further, on M4 muscarinic receptor, the maximum response (Emax) fell in the range of 25 to 100% and the “M4 Activity” value is given as “+++ (activity was measured to be less than 2.0 μM)”.
Consider `C#CCOC(=O)N1CCC(N2CCC3(CCN(C(C)=O)c4ccccc43)CC2)CC1` [compound 12], for which, at M1 muscarinic receptor, the Emax is more than 100% and the “M1 Activity” value is reported as “+++ (activity was measured to be less than 2.0 μM)”. On M4 muscarinic receptor, the maximal response (Emax) is 25 to 100% and the “M4 Activity” value is reported as “+++ (activity was measured to be less than 2.0 μM)”.
As for `CCc1nsc(N2CCC(N3CCC4(CCN(C(C)=O)c5ccccc54)CC3)CC2)n1` [compound 16], at M1 muscarinic receptor, the Emax lay within 25 to 100% and the “M1 Activity” value is “+++ (activity was measured to be less than 2.0 μM)”. Further, on M4 muscarinic receptor, the maximal effect (Emax) was 25 to 100% and the “M4 Activity” value is given as “+++ (activity was measured to be less than 2.0 μM)”.
Regarding `CCc1nsc(N2CC[C@@H](CN3CCC4(CC3)CN(C(=O)N(C)C)c3ccccc34)C2)n1` [compound 86], on M1 muscarinic receptor, the Emax lay in the range of 25 to 100% and the “M1 Activity” value was “+++ (activity was measured to be less than 2.0 μM)”. On M4 muscarinic receptor, the Emax fell in the range of 25 to 100% and the “M4 Activity” value was “+++ (activity was measured to be less than 2.0 μM)”.
Turning to `Cc1csc(N2CCC(N3CCC4(CC3)CN(C(=O)N(C)C)c3ccccc34)CC2)n1` [compound 91], on M1 muscarinic receptor, the maximal effect (Emax) lay in the range of 25 to 100% and the “M1 Activity” value was “++ (activity was measured to be from 2.0 μM to 10.0 μM)”. Further, at M4 muscarinic receptor, the Emax lay within 25 to 100% and the “M4 Activity” value is “+++ (activity was measured to be less than 2.0 μM)”.
As for `Cc1nsc(N2CCC(N3CCC4(CC3)CN(C(=O)N(C)C)c3ccccc34)CC2)n1` [compound 53], on M1 muscarinic receptor, the maximal effect (Emax) lay within 25 to 100% and the “M1 Activity” value is on record as “+++ (activity was measured to be less than 2.0 μM)”. On M4 muscarinic receptor, the Emax is more than 100% and the “M4 Activity” value was “+++ (activity was measured to be less than 2.0 μM)”.
On to `CC#CCOC(=O)N1CCCC(N2CCC3(CC2)CN(C(=O)N(C)C)c2ccccc23)CC1` (centres unmarked) [compound 105], for which, at M1 muscarinic receptor, the maximum response (Emax) is more than 100% and the “M1 Activity” value was “+++ (activity was measured to be less than 2.0 μM)”. On M4 muscarinic receptor, the Emax is more than 100% and the “M4 Activity” value was “+++ (activity was measured to be less than 2.0 μM)”.
As to `CN(C)C(=O)N1CC2(CCN(C[C@H]3CCN(c4cnccn4)C3)CC2)c2ccccc21` [compound 108], on M1 muscarinic receptor, the maximum response (Emax) was 25 to 100% and the “M1 Activity” value is “+++ (activity was measured to be less than 2.0 μM)”. Moreover, on M4 muscarinic receptor, the maximal effect (Emax) was more than 100% and the “M4 Activity” value is given as “+++ (activity was measured to be less than 2.0 μM)”.
With `CN(C)C(=O)N1CC2(CCN(C3CCN(c4cnc5ccccc5n4)CC3)CC2)c2ccccc21` [compound 78], at M1 muscarinic receptor, the maximal response (Emax) was 25 to 100% and the “M1 Activity” value was “+++ (activity was measured to be less than 2.0 μM)”. For the same molecule, on M4 muscarinic receptor, the maximal effect (Emax) was in the range of 25 to 100% and the “M4 Activity” value is “+++ (activity was measured to be less than 2.0 μM)”.
Take `CN(C)C(=O)N1CC2(CCN(C[C@H]3CCN(C(=O)OC4CCOC4)C3)CC2)c2ccccc21` (some centres unmarked) [compound 111]: on M1 muscarinic receptor, the maximum response (Emax) was less than 25% and the “M1 Activity” value is “++ (activity was measured to be from 2.0 μM to 10.0 μM)”. Moreover, on M4 muscarinic receptor, the Emax was less than 25% and the “M4 Activity” value is reported as “++ (activity was measured to be from 2.0 μM to 10.0 μM)”.
For `C=Cc1cncc(N2CCC(N3CCC4(CC3)CN(C(=O)N(C)C)c3ccccc34)CC2)n1` [compound 114], at M1 muscarinic receptor, the Emax was less than 25% and the “M1 Activity” value was “+ (activity was measured to be greater than 10.0 μM)”. At M4 muscarinic receptor, the Emax is 25 to 100% and the “M4 Activity” value is “+++ (activity was measured to be less than 2.0 μM)”.
Take `Cc1csc(N2CCC(N3CCC4(CCN(C(=O)N(C)C)c5ccccc54)CC3)CC2)n1` [compound 22]: on M1 muscarinic receptor, the Emax is 25 to 100% and the “M1 Activity” value was “++ (activity was measured to be from 2.0 μM to 10.0 μM)”. Moreover, at M4 muscarinic receptor, the maximal response (Emax) is 25 to 100% and the “M4 Activity” value is “++ (activity was measured to be from 2.0 μM to 10.0 μM)”.

The values above are taken from patent US8263605B2, “Modulators of muscarinic receptors” (Vertex Pharmaceutical Incorporated, priority 2006, dated 2012).
